Measurements: patent US20120034631A1, “ANTI-LYSOPHOSPHOLIPID ANTIBODY DESIGN USING ANTIBODY STRUCTURES” (priority 2010, published 2012)
Marks after values point to notes of the source that are not given here.

Assays:
[1] = system: ovarian tumor SKOV3; experiment: SKOV3 ovarian tumor progression and cytokines in nude mice; assay type: in vivo
Experimental: Human mAb LT3015 reduced ovarian tumor SKOV3 progression and circulating cytokines in biological fluids. Nude mice were engrafted with either 10 mg/kg LT3015, vehicle, or 2 mg/kg paclitaxel (Taxol). After 56 days, mice were sacrificed and the peritoneal cavities were analyzed for tumor burden and ascites fluid accumulation. Tumors were harvested and final tumor weights were determined along with ascites volumes. Data were analyzed by ANOVA and student's t-test analysis. […] Serum and ascites levels of IL-6, IL-8, GM-CSF and VEGF were measured using ELISA kits from R&D systems, Minneapolis Minn.

[2] = system: SKOV3 cells; experiment: Tumor cell migration in the scratch assay; assay type: cell-based; details: 17 hr
Experimental: SKOV3 cells were plated at 15,000 cells per well in a 96-well plate. The following day the cells were serum starved in minimal media (McCoy's Media 5a, adjusted to contain L-Glutamine, 2.2 g/L Sodium Bicarbonate, 1% penicillin/streptomycin and 1 mg/ml BSA) for 24 hrs. At time 0 cells were scratched with a p200 pipet tip down the center of each well, washed with minimal media and pictures were taken prior to treatment. Cells were then treated with LPA (C18:1) at 0.2 uM, 1.0 uM and 10 uM concentrations which were pre-incubated at 37° C. with […] in the presence or absence of antibody at 150 ug/ml. Positive control (10% FBS treated cells) and antibody alone added to 1 uM LPA, were also tested. Cells were stimulated for 17 hrs at 37° C. in a 5% CO2 incubator. Pictures were taken again 17 hr post-treatment and % wound closure was measured by adjusting pictures to the same size and measuring the width of the scratch at time 0 and time 17 hr with a ruler. Data were analyzed by Student's t-test.

[3] = system: IL-6 release, SKOV3 ovarian cells; experiment: LPA-induced IL-6 release in SKOV3 cells; assay type: cell-based, human; details: 1 uM LPA alone (stimulus)
Experimental: (§1) Anti-LPA antibodies inhibit the LPA-dependant release of human CXCL8/IL-8 in conditioned media of SKOV3 ovarian cells. SKOV3 cells (Lot No 4255558, passage 14) were harvested with 2 ml of 1× Trypsin EDTA (Mediatech Inc, Cat. No 25-053-CV) and resuspended in 8 ml of complete medium (10% FBS, Mediatech Inc. Cat. no 35-011-CV). The cells were centrifuged for 5 min ([…]) and re-suspended in 5 ml of complete medium. Cells were counted in duplicate with 0.4% Trypan blue (10 ul cells plus 90 ul Trypan blue, Invitrogen, Cat. No 15250-061) using a hemocytometer. In a 96-well plate, 1×10^5 cells per well were seeded (final volume 100 ul/well). The cells were allowed to attach and form a confluent monolayer by incubating overnight at 37° C. On the following day, cells were gently washed two times with minimum media (1 mg/ml BSA in McCoy's medium with L-glutamine, Mediatech, Cat. No 10-050-CV). […] The CXCL8/IL-8 levels in each supernatant were measured using the Quantikine human CXCL8/IL-8 ELISA kit according to vendor instructions (R&D Systems, Minneapolis Minn., Cat. No D8000C). The IL-6 levels were measured by ELISA using the Quantikine human IL-6 immunoassay kit (R&D systems, Cat. No. D6050). Data were analyzed by one-way ANOVA followed by Bonferroni's post test and expressed as human IL-8 or human IL-6 fold increase.

[4] = system: CXCL8/IL-8 release, SKOV3 ovarian cells; experiment: LPA-induced IL-8 release in SKOV3 cells; assay type: cell-based, human; details: 1 uM LPA alone (stimulus)
Experimental: as §1

Compound | Tumor Burden ([1]; 56 days, LT3015 10 mg/kg, Taxol 2 mg/kg, mean ± S.E., vehicle 1274 ± 209) | % Reduction (tumor burden) ([1]; 56 days, LT3015 10 mg/kg, Taxol 2 mg/kg, versus vehicle) | GM-CSF-ascites ([1]; LT3015 10 mg/kg (N = 4), Taxol 2 mg/kg (N = 1), vehicle 1200 ± 248.2) | IL-8-ascites ([1]; LT3015 10 mg/kg (N = 4), Taxol 2 mg/kg (N = 1), vehicle 2097 ± 132.1) | VEGF-ascites ([1]; LT3015 10 mg/kg (N = 4), Taxol 2 mg/kg (N = 1), vehicle 3341 ± 202.5) | Ascites volume ([1]; LT3015 10 mg/kg, Taxol 2 mg/kg, vehicle 3.563 ± 1.144) | IL-6-serum ([1]; LT3015 10 mg/kg, Taxol 2 mg/kg, vehicle 84.56 ± 16.62) | GM-CSF-serum ([1]; LT3015 10 mg/kg, Taxol 2 mg/kg, vehicle 320.5 ± 43.18) | IL-8-serum ([1]; LT3015 10 mg/kg, Taxol 2 mg/kg, vehicle 687.6 ± 114.1) | Ascites presence ([1]; animals with ascites / animals, LT3015 10 mg/kg, Taxol 2 mg/kg, vehicle 6/11) | Percent wound closure (approx.) ([2]; 0.2 uM LPA) | Percent wound closure (approx.) ([2]; 1.0 uM LPA) | Percent wound closure (approx.) ([2]; 10 uM LPA) | Human IL-6 Fold Increase (approx). [3] | Human IL-8 Fold Increase (approx). [4]
CC(=O)O[C@H]1C(=O)[C@@]2(C)[C@H]([C@H](OC(=O)c3ccccc3)[C@]3(O)C[C@H](OC(=O)[C@H](O)[C@@H](NC(=O)c4ccccc4)c4ccccc4)C(C)=C1C3(C)C)[C@]1(OC(C)=O)CO[C@@H]1C[C@@H]2O [Taxol, paclitaxel] | 381 ± 73 mg | 70.1% | 2054 ± 0 pg/mL | 2187 ± 0 pg/mL | 3344 ± 0 pg/mL | 0.2 ± 0.0 mL | 29.19 ± 9.568 pg/mL | 340.2 ± 62.98 pg/mL | 234.7 ± 83.04 pg/mL | 1/7 | – | – | – | – | –
Lysophosphatidic acid [LPA] | – | – | – | – | – | – | – | – | – | – | ~65% | ~81% | ~89% | ~29## fold | ~7.1## fold
